We go through five molecules from patent US8034790B2, “Use of MDA-7 to inhibit pathogenic infectious organisms” (priority 2003, dated 2011).

One series has as its system H1299 cells. Nature of the series: Cell viability / cell killing (trypan blue exclusion) in H1299 cells. As to conditions: for effect on cell killing by Ad-mda7 / cytotoxicity of secretion inhibitor alone / effect on cell killing due to Ad-luc or Ad-endostatin / cell killing by MDA-7 protein applied to cells: H1299 cells; for effect on cell killing by Ad-mda7: combination of Ad-mda7 and secretion inhibitor; for cytotoxicity of secretion inhibitor alone: dose that blocks MDA-7 secretion; for effect on cell killing due to Ad-luc or Ad-endostatin: p>0.05; for cell killing by MDA-7 protein applied to cells: viability after 3 days, EM 20-100 ng/ml, BacM 100 ng/ml, supernatant 10 and 100 ng/ml. The format is cell-based, human. The protocol: Construction and purification of replication-deficient human type 5 Adenovirus (Ad5) carrying the mda-7 gene was described previously (Mhashilkar et al., 2001). Cell lines were infected with Ad-mda7 or Ad-luc with indicated MOIs. Cells were plated at 10^5-10^6 cells/well in a 6-well plate format for protein expression, trypan-blue exclusion assay or apoptosis assays. For transfection with pShooter vectors, 1 μg of plasmid DNA was used to transfect cells using lipofectamine protocol as described (Mhashilkar et al., 2003).
Cell viability was determined by trypan blue exclusion assay or Live/Dead assay. Cells were trypsinized and a small aliquot was suspended 1:1 volume with 0.1% trypan blue. Total cell numbers and cell viability counts were assessed using a hemocytometer under light microscopy. For Live/Dead assay (Molecular Probes, Eugene Oreg.) cells were plated in chamber slides (Nunc) and then treated with pShooter-plasmid vectors or with Ad− vectors. Two-four days later the cells were treated with the probes, Calcein AM and Ethidium homodimer (both at 5 uM final conc. in PBS), for 30 minutes and then live (green) and dead (red) cells were counted via fluorescence microscopy. All assays were performed at least three times.

The next series relates to MDA-7 protein. Nature of the series: MDA-7 protein expression and secretion by western blot (cell lysates and supernatants). The format is cell-based, human. As to conditions: Ad-mda7 treated H1299 cells. As for the experimental part: Cell lysates ([…]) were suspended in 500 μl of Laemmli buffer with 5% 2-mercapto-ethanol (2ME) or supernatants (1:1 mixing with Laemmli buffer+2ME), were analyzed by SDS gel electrophoresis and western blot analysis. Expression of various proteins was determined by using the following primary antibodies: rabbit or mouse anti-human MDA-7 (Introgen Therapeutics, Inc), goat anti-human BiP/GRP-78, rabbit anti-human GADD34, goat anti-human PP2A, goat anti-human PERK, rabbit anti-human XBP-1 (Santa Cruz Biotechnologies, Santa Cruz, Calif.), rabbit anti-human caspase 7 and caspase-9 (Cell Signaling Technology, Beverly, Mass.). Antibodies against beta-actin, and alpha-tubulin were purchased from Sigma. Following incubation with horseradish peroxidase-labeled secondary antibody (Amersham Biosciences, Piscataway, N.J.) the proteins were visualized on enhanced chemiluminescence film (Hyperfilm, Amersham Biosciences, Piscataway, N.J.) by application of Amersham's enhanced chemiluminescence western blotting detection system. All westerns were performed 2-4 times.
H1299 cells were treated with 1000 vp/cell Ad-mda7 and the indicated concentrations of tunicamycin. Cells were harvested 24 hr later and analyzed for intracellular and secreted MDA-7 protein by western blot and apoptosis via Annexin V assay. Control cultures of cells treated with only tunicamycin were also assessed for apoptosis (Tun. Toxicity).
On the technique in general: In western blotting, separated proteins are transferred to a membrane and probed.

The next series deals with endostatin. Nature of the series: Endostatin secretion from Ad-endostatin treated H1299 cells. As to conditions: H1299 cells treated with Ad-endostatin. Format: cell-based, human. From the text:
To address whether apoptosis induction is due to intracellular MDA-7 or is simply a non-specific effect due to protein accumulation in the ER, we performed similar experiments using an adenoviral vector encoding endostatin as a control glycosylated secreted protein.

A value given as a limit tells only on which side of the number the result lay.

Regarding Tunicamycin, in the series with H1299 cells, the “effect on cell killing by Ad-mda7” value was “slightly enhanced cell killing”, the “cytotoxicity of secretion inhibitor alone” value is “not cytotoxic” and the “effect on cell killing due to Ad-luc or Ad-endostatin” value is reported as “Neither BFA nor tunicamycin significantly modulated cell killing”. Also, in the series on MDA-7 protein (1 μg/ml tunicamycin), the “reduction of secreted MDA-7” value is recorded as greater than 60%. For the same molecule, the “inhibition of MDA-7 secretion” value in the series on MDA-7 protein (2 μg/ml tunicamycin) is “completely blocked secretion”. The “effect on endostatin secretion” value in the series with endostatin is recorded as “potently blocked endostatin secretion”.
Turning to `C[C@H]1CCC/C=C/[C@@H]2C[C@H](O)C[C@H]2[C@H](O)/C=C/C(=O)O1` [BFA, Brefeldin A], in the series on H1299 cells, the “effect on cell killing by Ad-mda7” value is given as “slightly enhanced cell killing”, the “cytotoxicity of secretion inhibitor alone” value is “not cytotoxic” and the “effect on cell killing due to Ad-luc or Ad-endostatin” value is on record as “Neither BFA nor tunicamycin significantly modulated cell killing”. For the same molecule, the “inhibition of MDA-7 secretion” value in the series with MDA-7 protein (1 μg/ml BFA) is given as “completely block MDA-7 secretion”. Moreover, in the series with MDA-7 protein, the “concentration required to completely block secretion of MDA-7 protein” value is given as “less than 1 μg/ml”. For the same molecule, in the series with endostatin, the “effect on endostatin secretion” value is recorded as “potently blocked endostatin secretion”.

B1: MDA-7: protein of 206 amino acids (SEQ ID NO: 2) encoded by mda-7 cDNA (protein, listed as Homo sapiens)
chain: MNFQQRLQSLWTLARPFCPPLLATASQMQMVVLPCLGFTLLLWSQVSGAQGQEFHFGPCQVKGVVPQKLWEAFWAVKDTMQAQDNITSARLLQQEVLQNVSDAESCYLVHTLLEFYLKTVFKNYHNRTVEVRTLKSFSTLANNFVLIVSQLQPSQENEMFSIRDSAHRRFLLFRRAFKQLDVEAALTKALGEVDILLTWMQKFYKL
B1: the cell killing result with H1299 cells (H1299 cells treated with MDA-7 protein and then transduced with Ad-luc) was “Only background killing was observed”. In “Anti-angiogenic activity”, the “anti-angiogenic activity, potency relative to endostatin” value was 50 fold.

B2: MDA-7 containing supernatant: MDA-7 containing supernatant from stably expressing 293-mda7 cells (protein, UniProt Q13007 52-206, looked up)
Interleukin-24: QEFHFGPCQVKGVVPQKLWEAFWAVKDTMQAQDNITSARLLQQEVLQNVSDAESCYLVHTLLEFYLKTVFKNYHNRTVEVRTLKSFSTLANNFVLIVSQLQPSQENEMFSIRDSAHRRFLLFRRAFKQLDVEAALTKALGEVDILLTWMQKFYKL
modifications: cell culture supernatant
notes: MDA-7 containing supernatant from stably expressing 293-mda7 cells
For the molecule B2, the “cell killing by MDA-7 protein applied to cells” value in the series on H1299 cells is given as “did not induce cell death”. In addition, the “cell death above background levels” value in the series on H1299 cells (supernatant from stably expressing 293-mda7 cells applied to H1299 cells, 10 and 100 ng/ml, 3 days) was less than 10%.

B3: BacM: MDA-7 protein made in insect cells using baculovirus vectors (protein, UniProt Q13007 52-206, looked up)
Interleukin-24: QEFHFGPCQVKGVVPQKLWEAFWAVKDTMQAQDNITSARLLQQEVLQNVSDAESCYLVHTLLEFYLKTVFKNYHNRTVEVRTLKSFSTLANNFVLIVSQLQPSQENEMFSIRDSAHRRFLLFRRAFKQLDVEAALTKALGEVDILLTWMQKFYKL
modifications: insect cell expressed
notes: MDA-7 protein made in insect cells using baculovirus vectors
With B3, in the series on H1299 cells, the “cell killing by MDA-7 protein applied to cells” value is on record as “failed to induce significant killing”.
